# Test system: MV-4-11 cells
# Assay: Gene expression microarray analysis (Affymetrix PrimeView) and GSEA
# Assay type: cell-based, human
# Set-up: RFU PODN (11730768_x_at) / Fold change /veh PODN (11730768_x_at) / RFU LINC00158 (11744669_a_at) / Fold change /veh LINC00158 (11744669_a_at) / RFU DUSP10 (11751237_a_at) / Fold change /veh DUSP10 (11751237_a_at) / RFU ID3 (11757404_x_at) / Fold change /veh ID3 (11757404_x_at) / RFU PLEKHG5 (11737974_s_at) / Fold change /veh PLEKHG5 (11737974_s_at) / RFU LRRC4B (11730491_at) / Fold change /veh LRRC4B (11730491_at) / RFU GIMAP4 (11747438_a_at) / Fold change /veh GIMAP4 (11747438_a_at) / RFU KRT8 (11758183_x_at) / Fold change /veh KRT8 (11758183_x_at) / RFU CNN1 (11734310_a_at) / Fold change /veh CNN1 (11734310_a_at) / RFU VPS37D (11726825_at) / Fold change /veh VPS37D (11726825_at) / RFU C10orf10 (11716522_x_at) / Fold change /veh C10orf10 (11716522_x_at) / RFU KIR2DL2 /// KIR2DL4 /// KIR2DL5A /// KIR2DL5B /// KIR2DS1 /// KIR2DS2 /// KIR2DS3 /// KIR2DS4 /// KIR3DL3 /// KIR3DL3 /// KIR3DS1 (11738374_at) / Fold change /veh KIR2DL2 /// KIR2DL4 /// KIR2DL5A /// KIR2DL5B /// KIR2DS1 /// KIR2DS2 /// KIR2DS3 /// KIR2DS4 /// KIR3DL3 /// KIR3DL3 /// KIR3DS1 (11738374_at) / RFU C1QL1 (11718748_at) / Fold change /veh C1QL1 (11718748_at) / RFU TMPRSS4 (11747572_a_at) / Fold change /veh TMPRSS4 (11747572_a_at) / RFU HAMP (11756126_x_at) / Fold change /veh HAMP (11756126_x_at) / RFU RNFT2 (11725882_a_at) / Fold change /veh RNFT2 (11725882_a_at) / RFU NR4A2 (11747474_a_at) / Fold change /veh NR4A2 (11747474_a_at) / RFU ABCC12 (11746883_a_at) / Fold change /veh ABCC12 (11746883_a_at) / RFU TMEM136 (11760407_x_at) / Fold change /veh TMEM136 (11760407_x_at) / RFU CLDN22 /// WWC2 (11732394_at) / Fold change /veh CLDN22 /// WWC2 (11732394_at) / RFU HLA-DPB1 (11760878_x_at) / Fold change /veh HLA-DPB1 (11760878_x_at) / RFU SPINT1 (11716480_a_at) / Fold change /veh SPINT1 (11716480_a_at) / RFU GAP43 (11754022_s_at) / Fold change /veh GAP43 (11754022_s_at) / RFU A4GNT (11735810_at) / Fold change /veh A4GNT (11735810_at) / RFU PRB3 (11715151_x_at) / Fold change /veh PRB3 (11715151_x_at) / RFU TUBB4B (11761932_at) / Fold change /veh TUBB4B (11761932_at) / RFU CAPN14 (11732068_a_at) / Fold change /veh CAPN14 (11732068_a_at) / RFU TMCC2 (11721928_a_at) / Fold change /veh TMCC2 (11721928_a_at) / RFU IRGQ (11745062_a_at) / Fold change /veh IRGQ (11745062_a_at) / RFU FAM174B (11720279_a_at) / Fold change /veh FAM174B (11720279_a_at) / RFU TMPRSS4 (11748680_a_at) / Fold change /veh TMPRSS4 (11748680_a_at) / RFU FAM212B (11763350_a_at) / Fold change /veh FAM212B (11763350_a_at) / RFU PLEKHG5 (11743358_a_at) / Fold change /veh PLEKHG5 (11743358_a_at) / RFU ZSCAN30 (11745921_a_at) / Fold change /veh ZSCAN30 (11745921_a_at) / RFU CMKLR1 (11741424_a_at) / Fold change /veh CMKLR1 (11741424_a_at) / RFU LOC101060620 /// MAPK8IP1 (11723275_at) / Fold change /veh LOC101060620 /// MAPK8IP1 (11723275_at) / RFU SPTSSB (11747773_x_at) / Fold change /veh SPTSSB (11747773_x_at) / RFU PRSS12 (11739890_at) / Fold change /veh PRSS12 (11739890_at) / RFU BIN1 (11741810_x_at) / Fold change /veh BIN1 (11741810_x_at) / RFU WNT11 (11732464_a_at) / Fold change /veh WNT11 (11732464_a_at) / RFU C10orf10 (11716521_a_at) / Fold change /veh C10orf10 (11716521_a_at) / RFU C5orf56 (11738089_at) / Fold change /veh C5orf56 (11738089_at) / RFU CYB561 (11721691_x_at) / Fold change /veh CYB561 (11721691_x_at) / RFU ANKRD19P (11752326_a_at) / Fold change /veh ANKRD19P (11752326_a_at) / RFU OR2T12 /// OR2T33 /// OR2T8 (11738714_s_at) / Fold change /veh OR2T12 /// OR2T33 /// OR2T8 (11738714_s_at) / RFU VCAN (11748164_a_at) / Fold change /veh VCAN (11748164_a_at) / RFU JSRP1 (11732532_at) / Fold change /veh JSRP1 (11732532_at) / RFU KRTAP10-11 (11738290_x_at) / Fold change /veh KRTAP10-11 (11738290_x_at) / RFU MYO3A (11730013_a_at) / Fold change /veh MYO3A (11730013_a_at) / RFU EBF3 (11725865_a_at) / Fold change /veh EBF3 (11725865_a_at) / RFU CAMK2N1 (11719241_x_at) / Fold change /veh CAMK2N1 (11719241_x_at) / RFU C5orf56 (11738088_a_at) / Fold change /veh C5orf56 (11738088_a_at) / RFU OLFML3 (11715873_a_at) / Fold change /veh OLFML3 (11715873_a_at) / RFU LOC100653217 /// NTM (11731650_a_at) / Fold change /veh LOC100653217 /// NTM (11731650_a_at) / RFU MAPK11 (11762145_a_at) / Fold change /veh MAPK11 (11762145_a_at) / RFU FIZ1 (11724087_x_at) / Fold change /veh FIZ1 (11724087_x_at) / RFU OASL (11726364_x_at) / Fold change /veh OASL (11726364_x_at) / RFU SOX15 (11748057_x_at) / Fold change /veh SOX15 (11748057_x_at) / RFU CD79A (11719716_a_at) / Fold change /veh CD79A (11719716_a_at) / RFU HIST1H1D (11736915_at) / Fold change /veh HIST1H1D (11736915_at) / RFU CASKIN2 (11723855_a_at) / Fold change /veh CASKIN2 (11723855_a_at) / RFU LOC730098 (11760151_x_at) / Fold change /veh LOC730098 (11760151_x_at) / RFU OR4N2 (11742367_at) / Fold change /veh OR4N2 (11742367_at) / RFU PRRT2 (11749266_a_at) / Fold change /veh PRRT2 (11749266_a_at) / RFU SNX32 (11753110_a_at) / Fold change /veh SNX32 (11753110_a_at) / RFU CDHR5 (11726645_a_at) / Fold change /veh CDHR5 (11726645_a_at) / RFU RCAN1 (11760418_a_at) / Fold change /veh RCAN1 (11760418_a_at) / RFU FAM167A (11723789_a_at) / Fold change /veh FAM167A (11723789_a_at) / RFU FAM26E (11764081_at) / Fold change /veh FAM26E (11764081_at) / RFU ISYNA1 (11749810_s_at) / Fold change /veh ISYNA1 (11749810_s_at) / RFU ACY1 (11761880_at) / Fold change /veh ACY1 (11761880_at) / RFU 11764098_at / Fold change /veh 11764098_at / RFU SAMD14 (11745864_x_at) / Fold change /veh SAMD14 (11745864_x_at) / RFU NPB (11741838_a_at) / Fold change /veh NPB (11741838_a_at) / RFU TMPRSS6 (11731388_a_at) / Fold change /veh TMPRSS6 (11731388_a_at) / RFU KRTAP10-2 (11738614_at) / Fold change /veh KRTAP10-2 (11738614_at) / RFU ARHGAP8 /// PRR5-ARHGAP8 (11727945_x_at) / Fold change /veh ARHGAP8 /// PRR5-ARHGAP8 (11727945_x_at) / RFU KRTAP5-7 /// NADSYN1 (11734609_at) / Fold change /veh KRTAP5-7 /// NADSYN1 (11734609_at) / RFU RASL12 (11751679_a_at) / Fold change /veh RASL12 (11751679_a_at) / RFU CDKN2B (11736163_a_at) / Fold change /veh CDKN2B (11736163_a_at) / RFU PRF1 (11729649_at) / Fold change /veh PRF1 (11729649_at) / RFU, ZNF638 /// ZNF638-IT1 / Fold change vs veh, ZNF638 /// ZNF638-IT1 / RFU, PANK3 / Fold change vs veh, PANK3 / RFU, SH3YL1 / Fold change vs veh, SH3YL1 / RFU, ZEB2 / Fold change vs veh, ZEB2 / RFU, NRIP1 / Fold change vs veh, NRIP1 / RFU, PTTG1IP / Fold change vs veh, PTTG1IP / RFU, CAPN2 / Fold change vs veh, CAPN2 / RFU, MED14 / Fold change vs veh, MED14 / RFU, SNORA58 / Fold change vs veh, SNORA58 / RFU, C1orf63 / Fold change vs veh, C1orf63 / RFU, LRRFIP1 / Fold change vs veh, LRRFIP1 / RFU, NDUFAF7 / Fold change vs veh, NDUFAF7 / RFU, SLC12A2 / Fold change vs veh, SLC12A2 / RFU, IBTK / Fold change vs veh, IBTK / RFU, ESF1 / Fold change vs veh, ESF1 / Fold change vs veh, TMEM50B / RFU, TAOK1 / Fold change vs veh, TAOK1 / RFU, ACBD3 / Fold change vs veh, ACBD3 / RFU, TMA16 / Fold change vs veh, TMA16 / RFU, RWDD3 / Fold change vs veh, RWDD3 / RFU, BCAT1 / Fold change vs veh, BCAT1 / RFU, EDEM3 / Fold change vs veh, EDEM3 / RFU, TMEM33 / Fold change vs veh, TMEM33 / RFU, WDR75 / Fold change vs veh, WDR75 / RFU, AHCTF1 / Fold change vs veh, AHCTF1 / RFU, TFRC / Fold change vs veh, TFRC / RFU, ZDHHC17 / Fold change vs veh, ZDHHC17 / RFU, NOM1 / Fold change vs veh, NOM1 / RFU, ARL8B / Fold change vs veh, ARL8B / RFU, ZBTB11 / Fold change vs veh, ZBTB11 / RFU, TAMM41 / Fold change vs veh, TAMM41 / RFU, KIAA1704 /// LOC100996395 / Fold change vs veh, KIAA1704 /// LOC100996395 / RFU, ING1 / Fold change vs veh, ING1 / RFU, TRMT61B / Fold change vs veh, TRMT61B / RFU, FUBP3 / Fold change vs veh, FUBP3 / RFU, TP53 / Fold change vs veh, TP53 / RFU, TNKS2 / Fold change vs veh, TNKS2 / RFU, ZFP14 / Fold change vs veh, ZFP14 / RFU, ACTR2 / Fold change vs veh, ACTR2 / RFU, PPP3R1 / Fold change vs veh, PPP3R1 / RFU, PIK3R1 / Fold change vs veh, PIK3R1 / RFU, HNRNPA1 / Fold change vs veh, HNRNPA1 / RFU, RNF170 / Fold change vs veh, RNF170 / RFU, ZNF28 / Fold change vs veh, ZNF28 / RFU, RNGTT / Fold change vs veh, RNGTT / RFU, OGT / Fold change vs veh, OGT / RFU, BRD1 / Fold change vs veh, BRD1 / RFU, MARS / Fold change vs veh, MARS / RFU, ZNF655 / Fold change vs veh, ZNF655 / RFU, FAHD1 / Fold change vs veh, FAHD1 / RFU, BDP1 / Fold change vs veh, BDP1 / RFU, LRRCC1 / Fold change vs veh, LRRCC1 / RFU, ARID1A / Fold change vs veh, ARID1A / RFU, ZNF146 / Fold change vs veh, ZNF146 / RFU, ZNF330 / Fold change vs veh, ZNF330 / RFU, GPN3 / Fold change vs veh, GPN3 / RFU, C9orf123 / Fold change vs veh, C9orf123 / RFU, N4BP2L2 / Fold change vs veh, N4BP2L2 / RFU, ARFIP1 / Fold change vs veh, ARFIP1 / RFU, FAM179B / Fold change vs veh, FAM179B / RFU, BCL10 / Fold change vs veh, BCL10 / RFU, UHRF1BP1L / Fold change vs veh, UHRF1BP1L / RFU, BET1 / Fold change vs veh, BET1 / RFU, CNOT2 / Fold change vs veh, CNOT2 / RFU, ZNF268 / Fold change vs veh, ZNF268 / Fold change vs veh, ZNF507 / RFU, DGCR2 / Fold change vs veh, DGCR2 / RFU, WDSUB1 / Fold change vs veh, WDSUB1 / Fold change vs veh, HSP90B1 /// MIR3652 / RFU, ADSS / Fold change vs veh, ADSS / RFU, GK / Fold change vs veh, GK / RFU, ZNF148 / Fold change vs veh, ZNF148 / RFU, TAF9 / Fold change vs veh, TAF9 / RFU, SLC1A5 / Fold change vs veh, SLC1A5 / RFU, SLMO2 / Fold change vs veh, SLMO2 / RFU, ABCC4 / Fold change vs veh, ABCC4 / RFU, LOC101060439 /// RAP1B / Fold change vs veh, LOC101060439 /// RAP1B / RFU, RFX7 / Fold change vs veh, RFX7 / RFU, GTPBP10 / Fold change vs veh, GTPBP10 / RFU, CNEP1R1 / Fold change vs veh, CNEP1R1 / RFU, BIVM-ERCC5 /// ERCC5 / Fold change vs veh, BIVM-ERCC5 /// ERCC5 / RFU, ILF3 / Fold change vs veh, ILF3 / RFU 11762660_at / Fold change /veh 11762660_at / RFU VCAN (11757783_s_at) / Fold change /veh VCAN (11757783_s_at) / RFU DDX43 (11728927_at) / Fold change /veh DDX43 (11728927_at) / RFU KRT8 (11758188_x_at) / Fold change /veh KRT8 (11758188_x_at) / RFU NKD1 (11759106_at) / Fold change /veh NKD1 (11759106_at) / RFU SRD5A1 (11742802_a_at) / Fold change /veh SRD5A1 (11742802_a_at) / RFU TPSAB1 /// TPSB2 (11721975_s_at) / Fold change /veh TPSAB1 /// TPSB2 (11721975_s_at) / RFU GSTM3 (11746129_a_at) / Fold change /veh GSTM3 (11746129_a_at) / RFU IL23R (11737362_x_at) / Fold change /veh IL23R (11737362_x_at) / RFU TMEM51 (11727254_a_at) / Fold change /veh TMEM51 (11727254_a_at) / RFU PIWIL2 (11732686_x_at) / Fold change /veh PIWIL2 (11732686_x_at) / RFU ORM1 (11744905_x_at) / Fold change /veh ORM1 (11744905_x_at) / RFU CCDC152 (11743942_at) / Fold change /veh CCDC152 (11743942_at) / RFU ECM1 (11717891_a_at) / Fold change /veh ECM1 (11717891_a_at) / RFU IL23R (11748794_a_at) / Fold change /veh IL23R (11748794_a_at) / RFU TNFAIP8L3 (11732012_x_at) / Fold change /veh TNFAIP8L3 (11732012_x_at) / RFU MBOAT4 (11741988_at) / Fold change /veh MBOAT4 (11741988_at) / RFU 11764193_at / Fold change /veh 11764193_at / RFU TMEM53 (11763286_at) / Fold change /veh TMEM53 (11763286_at) / RFU MAGEB2 (11727129_at) / Fold change /veh MAGEB2 (11727129_at) / RFU TMEM200A (11744735_a_at) / Fold change /veh TMEM200A (11744735_a_at) / RFU CCDC152 (11751479_a_at) / Fold change /veh CCDC152 (11751479_a_at) / RFU FAM211A (11726209_a_at) / Fold change /veh FAM211A (11726209_a_at) / RFU RGS16 (11746705_a_at) / Fold change /veh RGS16 (11746705_a_at) / RFU VCAN (11755009_s_at) / Fold change /veh VCAN (11755009_s_at) / RFU RHOB (11743442_s_at) / Fold change /veh RHOB (11743442_s_at) / RFU RGS16 (11720943_a_at) / Fold change /veh RGS16 (11720943_a_at) / RFU RGS16 (11720944_at) / Fold change /veh RGS16 (11720944_at) / RFU, VPS4B / Fold change vs veh, VPS4B / RFU, CREB1 / Fold change vs veh, CREB1 / RFU, DNAJC13 / Fold change vs veh, DNAJC13 / RFU, GNAQ / Fold change vs veh, GNAQ / RFU, CDK5R1 / Fold change vs veh, CDK5R1 / RFU, ZRANB3 / Fold change vs veh, ZRANB3 / RFU, CUL4A / Fold change vs veh, CUL4A / RFU, CCNY / Fold change vs veh, CCNY / RFU, UFL1 / Fold change vs veh, UFL1 / RFU, COG3 / Fold change vs veh, COG3 / RFU, DIAPH2 / Fold change vs veh, DIAPH2 / RFU, SKA2 / Fold change vs veh, SKA2 / RFU, AFF3 / Fold change vs veh, AFF3 / RFU, LMF1 / Fold change vs veh, LMF1 / RFU, IPO11 / Fold change vs veh, IPO11 / RFU, DFFB / Fold change vs veh, DFFB / RFU, FOXP1 / Fold change vs veh, FOXP1 / RFU, CARD8 / Fold change vs veh, CARD8 / RFU, STRN3 / Fold change vs veh, STRN3 / RFU, ADK / Fold change vs veh, ADK / RFU, RASSF2 / Fold change vs veh, RASSF2 / RFU, WIPF1 / Fold change vs veh, WIPF1 / RFU, LARP1B / Fold change vs veh, LARP1B / RFU, RASA1 / Fold change vs veh, RASA1 / RFU, RB1 / Fold change vs veh, RB1 / RFU, PPFIA1 / Fold change vs veh, PPFIA1 / RFU, MAT2A / Fold change vs veh, MAT2A / RFU, CCT5 / Fold change vs veh, CCT5 / RFU, WDR92 / Fold change vs veh, WDR92 / RFU, CUX1 / Fold change vs veh, CUX1 / RFU, TTC7A / Fold change vs veh, TTC7A / RFU, TMEM135 / Fold change vs veh, TMEM135 / RFU, DEPTOR / Fold change vs veh, DEPTOR / RFU, CPM / Fold change vs veh, CPM / RFU, DNAJB6 / Fold change vs veh, DNAJB6 / RFU, CACNA2D3 / Fold change vs veh, CACNA2D3 / RFU, DTX4 / Fold change vs veh, DTX4 / RFU, TFCP2 / Fold change vs veh, TFCP2 / RFU, GMCL1 /// GMCL1P1 / Fold change vs veh, GMCL1 /// GMCL1P1 / RFU, AEBP2 / Fold change vs veh, AEBP2 / RFU, SNHG1 /// SNORD22 /// SNORD25 /// SNORD26 /// SNORD27 /// SNORD28 /// SNORD29 /// SNORD31 / Fold change vs veh, SNHG1 /// SNORD22 /// SNORD25 /// SNORD26 /// SNORD27 /// SNORD28 /// SNORD29 /// SNORD31 / Fold change (Aza/veh), C12orf56 (ProbeSet 11735607_a_at) / Fold change (ACY-1035/veh), C12orf56 (ProbeSet 11735607_a_at) / Fold change (Aza/veh), FGFR1OP (ProbeSet 11751329_s_at) / Fold change (ACY-1035/veh), FGFR1OP (ProbeSet 11751329_s_at) / Fold change (Aza/veh), VPS36 (ProbeSet 11739960_a_at) / Fold change (ACY-1035/veh), VPS36 (ProbeSet 11739960_a_at) / RFU SYPL1 (11715823_x_at) / Fold change /veh SYPL1 (11715823_x_at) / RFU IGFBP7 (11715501_s_at) / Fold change /veh IGFBP7 (11715501_s_at) / RFU REEP3 (11722064_at) / Fold change /veh REEP3 (11722064_at) / RFU IGLL1 (11728026_x_at) / Fold change /veh IGLL1 (11728026_x_at): dose or concentration left out as unconfirmed
# Conditions: ProbeSet 11725787_a_at; LIST B
smiles,measurement,value
Nc1ncn([C@@H]2O[C@H](CO)[C@@H](O)[C@H]2O)c(=O)n1 [azacitidine],"Fold change vs veh, TMA16",0.94
